In series [1] the test system is experimental model of non-insulin-dependent diabetes induced in the rat by streptozotocin. Description: Study of the antidiabetic activity in the rat (glycaemia, oral route). Format: in vivo. The settings on record: diabetic rats 8 weeks old; for % of glycaemia at D1 (percentage of change in the glycaemia with respect to D0): after treatment for 1 day; for % of glycaemia at D4 (percentage of change in the glycaemia with respect to D0): after treatment for 4 days. How it is done: The antidiabetic activity of the compounds of formula I by the oral route was determined on an experimental model of non-insulin-dependent diabetes induced in the rat by streptozotocin.
The model of non-insulin-dependent diabetes is obtained in the rat by a neonatal injection (on the day of birth) of streptozotocin.
The diabetic rats used are 8 weeks old. The animals are kept, from the day of their birth to the day of the experiment, in an animal house at a regulated temperature of 21 to 22° C. and are subjected to a fixed cycle of light (from 7 h to 19 h) and of darkness (from 19 h to 7 h). Their diet consisted of a maintenance diet; water and food were provided “ad libitum”, with the exception of the 2 hours of fasting preceding the tests, where food is withdrawn (post-absorptive state).
The rats are treated by the oral route, during the day, with the test product. Two hours after the final administration of the product and 30 minutes after anaesthetizing the animals with sodium pentobarbital (Nembutal®), a 300-μl blood sample is withdrawn at the end of the tail in order to determine the glycaemia.
at D1 (after treatment for 1 day) with respect to D0 (before treatment); and
at D4 (after treatment for 4 days) with respect to D0 (before treatment) for 2 different administration doses (20 mg/kg/day and 200 mg/kg/day) of active principle.

For series [2] the test system is unchanged. Description: Study of the hypolipidaemic activity in the rat (total cholesterol, total triglycerides). Format: in vivo. The following applies: oral route for 7 days, sample 18 h after final administration, diabetic rats 6 months old. How it is done:
The hypolipidaemic activity of the compounds of formula I by the oral route was determined on an experimental model of non-insulin-dependent diabetes induced in the rat by streptozotocin.
The model of non-insulin-dependent diabetes is obtained in the rats by a neonatal injection (5 days after birth) of streptozotocin.
The diabetic rats used are 6 months old. The animals are kept, from the day of their birth to the day of the experiment, in an animal house at a regulated temperature of 21 to 22° C. and are subjected to a fixed cycle of light (from 7 h to 19 h) and of darkness (from 19 h to 7 h).
Their diet consisted of a maintenance diet; water and food were provided “ab [sic] libitum”, with the exception of the 18 hours of fasting preceding the withdrawals of the blood samples on which the lipid balances will be carried out.
The rats are treated by the oral route with the compound of Example 1 for 7 days. A 300-μl sample is withdrawn 18 h after the final administration of this compound.
The total cholesterol was quantitatively determined by the CHOE/CHOD/POD Trinder method as an end point (Instrumentation Laboratory reagent [lacuna] on a Monarch plus analyser (Instrumentation Laboratory).
The total triglycerides were quantitatively determined by the GPO/Trinder method as an end point (Sigma Diagnostic reagent) on a Monarch analyser (Instrumentation Laboratory).

The molecule `COc1cccc(N2CCN(CCOc3ccc(CC(=O)O)cc3)CC2)c1` [Example 1, (4-{2-[4-(3-methoxyphenyl)-piperazin-1-yl]ethoxy}phenyl) acetic acid] displayed a melting point of 158 to 160 °C. In series [1] (20 mg/kg/day), the “% of glycaemia at D1 (percentage of change in the glycaemia with respect to D0)” value is on record as −8% and the “% of glycaemia at D4 (percentage of change in the glycaemia with respect to D0)” value is reported as −10%. Moreover, in series [1] (200 mg/kg/day), the “% of glycaemia at D1 (percentage of change in the glycaemia with respect to D0)” value is on record as −24% and the “% of glycaemia at D4 (percentage of change in the glycaemia with respect to D0)” value is on record as −34%. In series [2] (in the absence of treatment 90), the “TOTAL CHOLESTEROL” value was found to be 79 mg/dL. For the same molecule, in series [2] (in the absence of treatment 167), the “TOTAL TRIGLYCERIDES” value was determined as 102 mg/dL.
